Test results: ChEMBL document CHEMBL1150976, “The selectivity of protein kinase inhibitors: a further update” (Biochem J, 2007)
One block for each compound: values may come before it.

Experiments:
[1] = target: Mitogen-activated protein kinase 9 (Homo sapiens, UniProt P45984); test: Percentage JNK2 activity remaining in the presence of 25uM inhibitor
[2] = target: Mitogen-activated protein kinase 8 (Homo sapiens, UniProt P45983); test: Percentage JNK1 activity remaining in the presence of 25uM inhibitor
[3] = target: Cyclin-dependent kinase 2/cyclin A (Homo sapiens, UniProt P24941); test: Inhibition of CDK2-cyclinA in the presence of 20uM ATP; format: protein-complex assay
[4] = target: T1, Serine/threonine-protein kinase D1 (Homo sapiens) (UniProt Q15139); test: Percentage PKD1 activity remaining in the presence of 2uM inhibitor
T1 sequence (whole entry): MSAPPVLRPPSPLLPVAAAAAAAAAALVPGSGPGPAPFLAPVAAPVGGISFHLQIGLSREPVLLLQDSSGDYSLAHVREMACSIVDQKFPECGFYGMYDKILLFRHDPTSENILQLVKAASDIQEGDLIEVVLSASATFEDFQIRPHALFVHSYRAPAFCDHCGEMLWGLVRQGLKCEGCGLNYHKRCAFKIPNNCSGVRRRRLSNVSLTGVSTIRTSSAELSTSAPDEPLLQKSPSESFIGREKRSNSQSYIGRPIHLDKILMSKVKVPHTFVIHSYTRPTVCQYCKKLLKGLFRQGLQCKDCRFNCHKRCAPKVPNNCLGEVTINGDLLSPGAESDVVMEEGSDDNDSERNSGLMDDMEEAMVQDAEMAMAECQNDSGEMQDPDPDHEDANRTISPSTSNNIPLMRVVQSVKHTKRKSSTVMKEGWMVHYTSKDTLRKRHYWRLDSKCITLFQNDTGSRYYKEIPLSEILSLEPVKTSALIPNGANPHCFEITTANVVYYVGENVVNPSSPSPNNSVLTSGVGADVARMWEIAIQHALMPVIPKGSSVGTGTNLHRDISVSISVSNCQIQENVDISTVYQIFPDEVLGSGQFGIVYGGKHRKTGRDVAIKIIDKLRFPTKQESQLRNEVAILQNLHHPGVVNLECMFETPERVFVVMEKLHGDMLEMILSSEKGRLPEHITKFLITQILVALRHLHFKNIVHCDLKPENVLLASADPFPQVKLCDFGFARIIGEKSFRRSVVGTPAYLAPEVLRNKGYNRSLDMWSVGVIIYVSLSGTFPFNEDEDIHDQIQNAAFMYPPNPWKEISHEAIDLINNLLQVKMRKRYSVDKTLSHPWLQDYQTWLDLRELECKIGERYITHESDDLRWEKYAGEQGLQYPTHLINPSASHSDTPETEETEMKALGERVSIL

[5] = target: Ribosomal protein S6 kinase alpha-5 (Homo sapiens) (UniProt O75582); test: Percentage MSK1 activity remaining in the presence of 2uM inhibitor
[6] = target: Mitogen-activated protein kinase 10 (Homo sapiens) (UniProt P53779); test: Percentage JNK3 activity remaining in the presence of 2uM inhibitor
[7] = target: T2, Inhibitor of nuclear factor kappa-B kinase subunit beta (Homo sapiens) (UniProt O14920); test: Percentage IKK-beta activity remaining in the presence of 2uM inhibitor
T2 sequence (whole entry): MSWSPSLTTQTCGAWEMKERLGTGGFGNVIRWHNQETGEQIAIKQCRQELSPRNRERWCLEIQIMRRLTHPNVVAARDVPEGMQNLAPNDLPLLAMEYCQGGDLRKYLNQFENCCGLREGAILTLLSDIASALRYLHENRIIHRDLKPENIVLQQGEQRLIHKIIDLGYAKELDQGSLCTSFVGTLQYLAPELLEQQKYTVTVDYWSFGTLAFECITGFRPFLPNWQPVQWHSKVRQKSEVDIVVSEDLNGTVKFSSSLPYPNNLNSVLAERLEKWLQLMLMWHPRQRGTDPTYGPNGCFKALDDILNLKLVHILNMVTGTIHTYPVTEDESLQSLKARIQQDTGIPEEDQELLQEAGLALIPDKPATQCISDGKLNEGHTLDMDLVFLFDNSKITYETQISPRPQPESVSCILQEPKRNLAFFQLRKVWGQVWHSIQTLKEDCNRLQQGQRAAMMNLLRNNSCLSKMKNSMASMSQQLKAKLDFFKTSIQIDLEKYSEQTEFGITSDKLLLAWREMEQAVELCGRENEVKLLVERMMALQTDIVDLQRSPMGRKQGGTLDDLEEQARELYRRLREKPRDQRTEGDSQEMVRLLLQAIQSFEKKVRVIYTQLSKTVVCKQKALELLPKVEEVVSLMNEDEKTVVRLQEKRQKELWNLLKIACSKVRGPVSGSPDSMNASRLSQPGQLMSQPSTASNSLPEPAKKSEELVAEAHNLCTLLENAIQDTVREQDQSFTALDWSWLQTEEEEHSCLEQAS

[8] = target: Maternal embryonic leucine zipper kinase (Homo sapiens) (UniProt Q14680); test: Percentage MELK activity remaining in the presence of 2uM inhibitor
[9] = target: Dual specificity tyrosine-phosphorylation-regulated kinase 1A (Homo sapiens) (UniProt Q13627); test: Percentage DYRK1A activity remaining in the presence of 3uM inhibitor
[10] = target: Mitogen-activated protein kinase 14 (Homo sapiens, UniProt Q16539); test: Percentage p38alpha activity remaining in the presence of 3uM inhibitor
[11] = target: Serine/threonine-protein kinase PAK 6 (Homo sapiens) (UniProt Q9NQU5); test: Percentage PAK6 activity remaining in the presence of 3uM inhibitor
[12] = target: T3, Inhibitor of nuclear factor kappa-B kinase subunit epsilon (Homo sapiens) (UniProt Q14164); test: Percentage IKKepsilon activity remaining in the presence of 0.1uM inhibitor; conditions: filed as antagonist
T3 sequence (whole entry): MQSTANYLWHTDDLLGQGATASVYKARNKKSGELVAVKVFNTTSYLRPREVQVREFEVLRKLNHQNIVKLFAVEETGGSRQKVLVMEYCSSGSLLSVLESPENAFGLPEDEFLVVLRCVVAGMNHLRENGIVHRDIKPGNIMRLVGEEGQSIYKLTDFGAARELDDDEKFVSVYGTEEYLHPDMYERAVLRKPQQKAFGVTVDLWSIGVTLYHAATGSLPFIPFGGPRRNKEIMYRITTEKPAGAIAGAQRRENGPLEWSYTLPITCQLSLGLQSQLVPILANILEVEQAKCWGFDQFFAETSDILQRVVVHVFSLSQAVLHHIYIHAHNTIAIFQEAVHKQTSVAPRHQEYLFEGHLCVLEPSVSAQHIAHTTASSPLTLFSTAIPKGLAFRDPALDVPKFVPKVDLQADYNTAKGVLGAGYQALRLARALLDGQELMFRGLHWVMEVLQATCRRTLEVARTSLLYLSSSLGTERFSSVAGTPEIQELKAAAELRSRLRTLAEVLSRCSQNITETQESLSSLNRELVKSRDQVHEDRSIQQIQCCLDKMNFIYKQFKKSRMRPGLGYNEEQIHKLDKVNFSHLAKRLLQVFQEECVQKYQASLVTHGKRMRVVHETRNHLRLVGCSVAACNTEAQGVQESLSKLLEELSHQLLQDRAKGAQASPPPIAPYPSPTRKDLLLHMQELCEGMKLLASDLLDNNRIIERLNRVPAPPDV

Serine/threonine-protein kinase PAK 6 (Homo sapiens), sequence (Q9NQU5 whole entry, looked up): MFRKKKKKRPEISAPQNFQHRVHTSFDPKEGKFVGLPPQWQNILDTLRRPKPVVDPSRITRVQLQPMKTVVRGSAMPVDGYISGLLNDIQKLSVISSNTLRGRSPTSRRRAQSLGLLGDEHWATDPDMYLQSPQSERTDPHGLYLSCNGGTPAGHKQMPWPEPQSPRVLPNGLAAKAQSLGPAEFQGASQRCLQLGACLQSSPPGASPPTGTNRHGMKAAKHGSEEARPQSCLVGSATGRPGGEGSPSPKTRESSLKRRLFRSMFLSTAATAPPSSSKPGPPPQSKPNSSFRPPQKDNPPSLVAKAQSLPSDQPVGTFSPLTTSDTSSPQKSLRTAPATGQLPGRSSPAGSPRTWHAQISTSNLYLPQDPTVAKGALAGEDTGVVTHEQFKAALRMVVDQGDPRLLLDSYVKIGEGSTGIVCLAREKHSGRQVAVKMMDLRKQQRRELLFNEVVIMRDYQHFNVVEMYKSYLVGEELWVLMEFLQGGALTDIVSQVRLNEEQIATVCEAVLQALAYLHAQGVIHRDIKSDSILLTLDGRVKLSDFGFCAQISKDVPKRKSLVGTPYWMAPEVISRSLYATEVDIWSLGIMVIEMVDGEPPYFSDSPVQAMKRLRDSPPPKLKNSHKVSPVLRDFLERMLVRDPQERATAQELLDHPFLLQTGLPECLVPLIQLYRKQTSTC
Mitogen-activated protein kinase 8, sequence (P45983 whole entry): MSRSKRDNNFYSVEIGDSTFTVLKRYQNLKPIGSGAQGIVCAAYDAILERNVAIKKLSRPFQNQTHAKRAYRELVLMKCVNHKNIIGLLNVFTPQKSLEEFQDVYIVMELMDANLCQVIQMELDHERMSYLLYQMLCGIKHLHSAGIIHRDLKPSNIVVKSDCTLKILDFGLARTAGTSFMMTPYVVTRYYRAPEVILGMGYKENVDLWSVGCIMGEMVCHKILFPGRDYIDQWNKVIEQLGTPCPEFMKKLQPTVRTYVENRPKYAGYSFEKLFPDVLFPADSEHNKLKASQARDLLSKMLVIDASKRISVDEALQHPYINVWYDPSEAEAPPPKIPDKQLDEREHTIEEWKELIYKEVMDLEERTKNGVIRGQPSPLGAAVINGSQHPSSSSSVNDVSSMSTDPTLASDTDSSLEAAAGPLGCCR
Mitogen-activated protein kinase 10 (Homo sapiens), sequence (P53779 whole entry): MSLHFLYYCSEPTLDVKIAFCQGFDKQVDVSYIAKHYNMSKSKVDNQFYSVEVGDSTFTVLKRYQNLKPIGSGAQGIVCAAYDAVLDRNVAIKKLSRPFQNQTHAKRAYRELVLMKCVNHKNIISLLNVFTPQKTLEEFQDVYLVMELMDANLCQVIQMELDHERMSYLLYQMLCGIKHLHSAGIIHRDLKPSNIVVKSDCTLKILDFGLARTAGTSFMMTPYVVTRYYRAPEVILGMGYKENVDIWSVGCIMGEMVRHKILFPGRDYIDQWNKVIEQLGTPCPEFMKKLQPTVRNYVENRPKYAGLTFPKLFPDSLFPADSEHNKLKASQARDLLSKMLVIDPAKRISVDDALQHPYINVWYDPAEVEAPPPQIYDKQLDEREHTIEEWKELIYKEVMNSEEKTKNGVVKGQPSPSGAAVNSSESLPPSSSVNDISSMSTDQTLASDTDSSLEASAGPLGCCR
Maternal embryonic leucine zipper kinase (Homo sapiens), sequence (Q14680 whole entry, looked up): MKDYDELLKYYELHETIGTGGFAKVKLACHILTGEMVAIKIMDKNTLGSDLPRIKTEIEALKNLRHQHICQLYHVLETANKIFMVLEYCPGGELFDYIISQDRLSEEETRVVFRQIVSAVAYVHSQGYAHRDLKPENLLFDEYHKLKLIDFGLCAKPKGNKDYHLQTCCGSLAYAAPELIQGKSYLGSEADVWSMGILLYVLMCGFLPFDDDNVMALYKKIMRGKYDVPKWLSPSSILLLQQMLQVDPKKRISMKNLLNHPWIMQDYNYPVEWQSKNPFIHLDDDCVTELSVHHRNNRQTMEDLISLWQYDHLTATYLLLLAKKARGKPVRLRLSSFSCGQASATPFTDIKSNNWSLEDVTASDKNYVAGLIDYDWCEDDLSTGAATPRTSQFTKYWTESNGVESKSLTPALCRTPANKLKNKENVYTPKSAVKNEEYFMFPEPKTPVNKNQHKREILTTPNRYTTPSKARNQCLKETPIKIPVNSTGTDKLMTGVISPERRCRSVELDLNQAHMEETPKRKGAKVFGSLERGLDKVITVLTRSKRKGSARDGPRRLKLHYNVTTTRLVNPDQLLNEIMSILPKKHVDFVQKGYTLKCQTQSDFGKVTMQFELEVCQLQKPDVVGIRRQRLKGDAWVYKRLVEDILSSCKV
Mitogen-activated protein kinase 14, sequence (Q16539 whole entry): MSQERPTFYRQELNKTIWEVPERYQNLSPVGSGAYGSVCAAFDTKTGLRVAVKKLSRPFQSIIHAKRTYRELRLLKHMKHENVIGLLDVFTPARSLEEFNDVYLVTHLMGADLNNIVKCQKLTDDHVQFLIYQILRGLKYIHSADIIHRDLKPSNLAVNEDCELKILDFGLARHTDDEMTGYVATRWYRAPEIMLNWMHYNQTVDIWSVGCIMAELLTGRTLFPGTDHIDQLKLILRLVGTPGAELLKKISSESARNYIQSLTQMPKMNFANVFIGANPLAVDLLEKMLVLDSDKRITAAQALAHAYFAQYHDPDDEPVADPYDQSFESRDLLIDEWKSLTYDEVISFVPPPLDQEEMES
Ribosomal protein S6 kinase alpha-5 (Homo sapiens), sequence (O75582 whole entry, looked up): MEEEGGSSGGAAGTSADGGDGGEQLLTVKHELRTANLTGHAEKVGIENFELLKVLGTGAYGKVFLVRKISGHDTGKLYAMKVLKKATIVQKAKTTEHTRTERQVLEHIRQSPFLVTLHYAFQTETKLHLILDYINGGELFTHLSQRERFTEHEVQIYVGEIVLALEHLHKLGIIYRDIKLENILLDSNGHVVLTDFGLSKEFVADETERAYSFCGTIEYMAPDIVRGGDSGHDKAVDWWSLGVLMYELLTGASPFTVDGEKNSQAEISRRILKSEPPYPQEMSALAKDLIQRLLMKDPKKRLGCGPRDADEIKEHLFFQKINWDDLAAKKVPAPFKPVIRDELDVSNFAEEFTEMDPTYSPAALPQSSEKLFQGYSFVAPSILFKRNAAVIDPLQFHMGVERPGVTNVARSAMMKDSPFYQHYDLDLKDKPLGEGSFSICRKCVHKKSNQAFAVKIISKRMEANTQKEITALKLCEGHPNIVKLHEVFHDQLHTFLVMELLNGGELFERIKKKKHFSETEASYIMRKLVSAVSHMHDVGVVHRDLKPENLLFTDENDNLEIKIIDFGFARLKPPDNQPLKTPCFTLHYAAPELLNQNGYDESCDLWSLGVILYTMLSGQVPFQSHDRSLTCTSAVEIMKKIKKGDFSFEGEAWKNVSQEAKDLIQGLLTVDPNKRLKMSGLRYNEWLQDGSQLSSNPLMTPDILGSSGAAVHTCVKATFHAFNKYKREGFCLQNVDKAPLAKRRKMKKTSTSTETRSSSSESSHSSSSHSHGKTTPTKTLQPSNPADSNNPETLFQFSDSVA
Mitogen-activated protein kinase 9, sequence (P45984 whole entry, looked up): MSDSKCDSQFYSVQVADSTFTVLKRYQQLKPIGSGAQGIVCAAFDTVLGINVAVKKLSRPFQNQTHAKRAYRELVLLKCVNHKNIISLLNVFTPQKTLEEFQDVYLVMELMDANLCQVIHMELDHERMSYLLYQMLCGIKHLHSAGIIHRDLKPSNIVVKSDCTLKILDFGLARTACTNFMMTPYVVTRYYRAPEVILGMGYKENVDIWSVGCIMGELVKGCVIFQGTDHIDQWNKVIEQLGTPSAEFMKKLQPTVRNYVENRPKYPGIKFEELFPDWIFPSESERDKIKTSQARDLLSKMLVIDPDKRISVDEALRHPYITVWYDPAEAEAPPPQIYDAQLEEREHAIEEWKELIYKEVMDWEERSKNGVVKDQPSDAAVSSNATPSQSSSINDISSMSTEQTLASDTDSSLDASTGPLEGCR

- Activity [1]: 87%
- Activity [2]: 91%
Structure (SMILES): NCCNS(=O)(=O)c1ccc(Cl)c2ccncc12

- Activity [4]: 100%
- Activity [5]: 69%
- Activity [6]: 88%
- Activity [7]: 99%
- Activity [8]: 78%
Structure (SMILES): Cn1cc(C2=C(c3ccc(Cl)cc3Cl)C(=O)NC2=O)c2ccccc21

The next lines start with the compound.

Structure (SMILES): CC(C)[C@H](CO)Nc1nc(Nc2cccc(Cl)c2)c2ncn(C(C)C)c2n1 [PURVALANOLA]
- IC50 [3]: 0.03 µM (antagonist)

Structure (SMILES): Cc1ccc(-c2c(C(=O)CF)n(CCCO)c3ncnc(N)c23)cc1
- Activity [9]: 86%
- Activity [10]: 72%
- Activity [11]: 93%

Structure (SMILES): O=C(NCCCNc1nc(Nc2cccc(NC(=O)N3CCCC3)c2)ncc1I)c1cccs1
- Activity [12]: 0%
